The results in this text go back to patent US8815882B2, “Pyrazole aminopyrimidine derivatives as LRRK2 modulators” (Genentech, Inc., priority 2010, dated 2014).

T1 sequence (Q5S007 whole entry G2019S): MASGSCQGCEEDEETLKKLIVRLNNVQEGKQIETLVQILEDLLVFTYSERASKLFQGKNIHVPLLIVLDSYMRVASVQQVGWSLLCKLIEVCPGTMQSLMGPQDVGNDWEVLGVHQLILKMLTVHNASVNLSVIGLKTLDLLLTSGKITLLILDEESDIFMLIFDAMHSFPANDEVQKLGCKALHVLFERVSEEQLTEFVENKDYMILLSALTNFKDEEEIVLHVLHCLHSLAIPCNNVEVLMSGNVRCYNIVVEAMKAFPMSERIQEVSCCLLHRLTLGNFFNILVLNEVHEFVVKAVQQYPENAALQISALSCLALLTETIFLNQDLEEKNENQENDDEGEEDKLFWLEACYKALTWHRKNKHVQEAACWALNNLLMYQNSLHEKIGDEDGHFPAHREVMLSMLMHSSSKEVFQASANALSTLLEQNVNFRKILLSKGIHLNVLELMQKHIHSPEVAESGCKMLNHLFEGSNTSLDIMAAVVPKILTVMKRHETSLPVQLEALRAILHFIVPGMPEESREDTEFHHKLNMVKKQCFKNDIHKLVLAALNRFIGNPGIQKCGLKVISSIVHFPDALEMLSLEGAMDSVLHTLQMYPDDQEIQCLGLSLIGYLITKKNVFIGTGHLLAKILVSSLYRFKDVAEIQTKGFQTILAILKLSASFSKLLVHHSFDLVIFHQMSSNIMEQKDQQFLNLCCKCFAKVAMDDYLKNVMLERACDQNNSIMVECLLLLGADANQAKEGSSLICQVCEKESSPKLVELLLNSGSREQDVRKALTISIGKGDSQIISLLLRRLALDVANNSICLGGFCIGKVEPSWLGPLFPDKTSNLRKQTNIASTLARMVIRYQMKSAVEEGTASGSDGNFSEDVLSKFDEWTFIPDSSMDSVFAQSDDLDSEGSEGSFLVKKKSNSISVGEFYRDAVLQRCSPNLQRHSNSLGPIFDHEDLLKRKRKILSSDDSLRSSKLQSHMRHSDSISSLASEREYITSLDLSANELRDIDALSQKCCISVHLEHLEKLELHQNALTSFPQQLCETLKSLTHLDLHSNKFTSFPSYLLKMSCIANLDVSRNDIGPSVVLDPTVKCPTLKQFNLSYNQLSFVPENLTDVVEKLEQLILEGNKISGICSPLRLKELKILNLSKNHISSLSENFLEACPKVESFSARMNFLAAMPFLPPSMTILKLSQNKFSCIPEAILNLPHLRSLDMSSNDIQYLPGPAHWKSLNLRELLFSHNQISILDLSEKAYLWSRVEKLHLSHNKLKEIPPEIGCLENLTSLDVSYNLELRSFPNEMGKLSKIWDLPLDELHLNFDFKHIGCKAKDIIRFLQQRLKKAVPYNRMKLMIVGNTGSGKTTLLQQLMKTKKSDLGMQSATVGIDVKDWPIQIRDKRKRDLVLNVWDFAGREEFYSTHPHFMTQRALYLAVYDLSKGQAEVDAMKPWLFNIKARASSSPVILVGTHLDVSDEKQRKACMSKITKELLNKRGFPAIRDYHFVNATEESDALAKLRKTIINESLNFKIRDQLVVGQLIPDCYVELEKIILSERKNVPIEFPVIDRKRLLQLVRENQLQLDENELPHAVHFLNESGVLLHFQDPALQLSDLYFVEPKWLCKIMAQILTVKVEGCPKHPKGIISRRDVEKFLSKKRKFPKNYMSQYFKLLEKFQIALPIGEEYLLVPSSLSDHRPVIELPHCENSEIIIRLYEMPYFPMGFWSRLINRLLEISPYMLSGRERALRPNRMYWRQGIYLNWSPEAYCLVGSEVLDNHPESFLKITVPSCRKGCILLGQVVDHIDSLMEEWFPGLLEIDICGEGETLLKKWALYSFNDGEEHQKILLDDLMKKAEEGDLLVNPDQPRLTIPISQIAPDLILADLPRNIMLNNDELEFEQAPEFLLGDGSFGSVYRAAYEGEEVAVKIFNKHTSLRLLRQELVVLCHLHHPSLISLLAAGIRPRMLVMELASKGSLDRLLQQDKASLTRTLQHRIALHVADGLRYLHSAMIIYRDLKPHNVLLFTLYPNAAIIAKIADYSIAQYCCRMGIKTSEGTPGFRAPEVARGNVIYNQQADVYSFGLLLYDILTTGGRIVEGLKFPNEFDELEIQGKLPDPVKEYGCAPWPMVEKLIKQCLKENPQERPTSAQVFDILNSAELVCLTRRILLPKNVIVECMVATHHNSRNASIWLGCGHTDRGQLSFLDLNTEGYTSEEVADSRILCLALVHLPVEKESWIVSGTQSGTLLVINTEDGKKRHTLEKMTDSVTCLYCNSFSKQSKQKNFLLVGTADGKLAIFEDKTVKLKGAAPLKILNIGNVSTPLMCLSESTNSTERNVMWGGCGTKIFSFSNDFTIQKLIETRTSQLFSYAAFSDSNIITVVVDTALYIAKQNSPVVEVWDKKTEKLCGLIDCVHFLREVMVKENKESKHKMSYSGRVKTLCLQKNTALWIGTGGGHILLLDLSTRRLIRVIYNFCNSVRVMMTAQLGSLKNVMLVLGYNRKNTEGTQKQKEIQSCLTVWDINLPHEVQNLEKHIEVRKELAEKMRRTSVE

The first assay concerns the target T1, LRRK2 (Homo sapiens, UniProt Q5S007, G2019S).
T1 construct: purchased Invitrogen PV4882 (lot 567054A)
Kind of assay: In Vitro LRRK2 Assay (LabChip 3000, fluorescently-labeled peptide substrate, ATP). The class given is biochemical. Particulars: Table 9; LRRK2 Ki (micromolar); read-out: LRRK2 Ki (KI). Put shortly: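 LRRK2, fluorescent peptide substrate (diluted to 4 μM before mixing), ATP and compound were incubated 2 h in the dark, then stopped. Phosphorylated and unphosphorylated peptide were separated by capillary electrophoresis and quantified by fluorescence. Ki was fitted with a tight-binding equation including enzyme concentration, S and Km; IC50 or percent inhibition were also reported.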
`CCCn1cc(Nc2ncc(C#N)c(NC)n2)c(C)n1` [Example 387, 4-Methylamino-2-(3-methyl-1-propyl-1H-pyrazol-4-ylamino)-pyrimidine-5-carbonitrile]: the Ki was 5.4 nM.

The assay is the same for the next values; noted with them: Table 10; LRRK2 Ki (micromolar); read-out: LRRK2 Ki (KI).
As to `CCc1nn(C(C)(C)C#N)cc1Nc1ncc(C(F)(F)F)c(NC)n1` [Example 410, 2-(3-ethyl-4-(4-(methylamino)-5-(trifluoromethyl)pyrimidin-2-ylamino)-1H-pyrazol-1-yl)-2-methylpropanenitrile], the Ki came to 10 nM. With `CNc1nc(Nc2cnn(C(C)(C)C#N)c2C)ncc1C(F)(F)F` [Example 401, 2-methyl-2-(5-methyl-4-(4-(methylamino)-5-(trifluoromethyl)pyrimidin-2-ylamino)-1H-pyrazol-1-yl)propanenitrile], the Ki was 0.7 nM. On to `CNC(=O)C(C)(C)n1cc(Nc2ncc(C(F)(F)F)c(NC)n2)c(C)n1` [Example 432, N,2-dimethyl-2-(3-methyl-4-(4-(methylamino)-5-(trifluoromethyl)pyrimidin-2-ylamino)-1H-pyrazol-1-yl)propanamide], for which the Ki was 18.4 nM.

In the case of `CNc1nc(Nc2cn([C@@H](C)C(=O)N3CCCC3)nc2C)ncc1C(F)(F)F` [Example 405, (S)-2-(3-methyl-4 (4-(methylamino)-5-(trifluoromethyl)pyrimidin-2-ylamino)-1H-pyrazol-1-yl)-1-(pyrrolidin-1-yl)propan-1-one], the Ki is 22 nM.

The assay is the same for the next values; noted with them: read-out: LRRK2 Ki (KI), Table 7.
Turning to `COc1nc(Nc2cn(-c3ccc(S(C)(=O)=O)cc3)nc2C)ncc1Cl` [Example 75, (5-Chloro-4-methoxy-pyrimidin-2-yl)-[1-(4-methanesulfonyl-phenyl)-3-methyl-1H-pyrazol-4-yl]-amine], the Ki stood at 2.2 nM. With `CNc1nc(Nc2ccnn2C)ncc1F` [Example 35, 5-Fluoro-N^4-methyl-N^2-(2-methyl-2H-pyrazol-3-yl)-pyrimidine-2,4-diamine], the Ki amounted to 267 nM. Same read-out and setting: the value for `Cc1c(Nc2ncc(Cl)c(OC3CCOCC3)n2)cnn1C` [Example 9, 5-Chloro-N-(1,5-dimethyl-1H-pyrazol-4-yl)-4-(tetrahydro-2H-pyran-4-yloxy)pyrimidin-2-amine] was 39 nM; that for `COc1nc(Nc2cn(C3CCOCC3)nc2C)ncc1Cl` [Example 65, 5-chloro-4-methoxy-N-(3-methyl-1-(tetrahydro-2H-pyran-4-yl)-1H-pyrazol-4-yl)pyrimidin-2-amine] was 2.9 nM.

The same assay, now with this note: read-out: LRRK2 Ki (KI), Table 8.
`CNc1nc(Nc2cnn(C(F)F)c2C)ncc1C(F)(F)F` [Example 106, N2-(1-(difluoromethyl)-5-methyl-1H-pyrazol-4-yl)-N4-methyl-5-(trifluoromethyl) pyrimidine-2,4-diamine]: the Ki amounted to 1.9 nM. As for `CNc1nc(Nc2cnn(CC3CC3)c2C)ncc1C(F)(F)F` [Example 165, N2-(1-(cyclopropyl-methyl)-5-methyl-1H-pyrazol-4-yl)-N4-methyl-5-(trifluoromethyl) pyrimidine-2,4-diamine], the Ki came to 1.2 nM.

For `CCNc1nc(Nc2cn(S(=O)(=O)C(C)C)nc2C)ncc1C(F)(F)F` [Example 216, N4-ethyl-N2-(1-(isopropylsulfonyl)-3-methyl-1H-pyrazol-4-yl)-5-(trifluoromethyl) pyrimidine-2,4-diamine], the Ki came out at 3.9 nM. On the same count and under the same terms, the value for `CNc1nc(Nc2cnn(CC3(C)COC3)c2Cl)ncc1C(F)(F)F` [Example 180, N2-(5-chloro-1-((3-methyloxetan-3-yl)methyl)-1H-pyrazol-4-yl)-N4-methyl-5-(trifluoromethyl) pyrimidine-2,4-diamine] was 5.6 nM; that for `CNc1nc(Nc2cn(C(C)(C)CN3CCOCC3)nc2C)ncc1C(F)(F)F` [Example 299, N2-[1-(1,1-Dimethyl-2-morpholin-4-yl-ethyl)-3-methyl-1H-pyrazol-4-yl]-N4-methyl-5-trifluoromethyl-pyrimidine-2,4-diamine] was 22.8 nM. For the molecule `CNc1nc(Nc2cn(C3CCN(C(=O)C4CC4)CC3)nc2C)ncc1C(F)(F)F` [Example 136, cyclopropyl(4-(3-methyl-4-(4-(methylamino)-5-(trifluoromethyl)pyrimidin-2-ylamino)-1H-pyrazol-1-yl)piperidin-1-yl)methanone], the Ki is 9.3 nM. Still for that read-out and setting: the value for `CNc1nc(Nc2cnn(CC(C)(C)O)c2C(F)(F)F)ncc1C(F)(F)F` [Example 197, 2-methyl-1-(4-(4-(methylamino)-5-(trifluoromethyl)pyrimidin-2-ylamino)-5-(trifluoromethyl)-1H-pyrazol-1-yl)propan-2-ol] was 26 nM; that for `CNc1nc(Nc2cn(-c3ccnc(C)c3)nc2C)ncc1C(F)(F)F` [Example 143, N4-methyl-N2-(3-methyl-1-(2-methylpyridin-4-yl)-1H-pyrazol-4-yl)-5-(trifluoromethyl) pyrimidine-2,4-diamine] was 6.9 nM; that for `CNc1nc(Nc2cn(S(C)(=O)=O)nc2C)ncc1Cl` [Example 101, 5-chloro-N4-methyl-N2-(3-methyl-1-(methylsulfonyl)-1H-pyrazol-4-yl)pyrimidine-2,4-diamine] was 8.8 nM. Turning to `CCNc1nc(Nc2cnn(CC(C)(C)O)c2Cl)ncc1C(F)(F)F` [Example 234, 1-(5-chloro-4-(4-(ethylamino)-5-(trifluoromethyl)pyrimidin-2-ylamino)-1H-pyrazol-1-yl)-2-methylpropan-2-ol], the Ki amounted to 3.1 nM. The same measure, in the same setting: as for `CCNc1nc(Nc2cn(C(C)(C)c3ccnn3C)nc2C)ncc1C(F)(F)F` [Example 343, N4-ethyl-N2-(3-methyl-1-(2-(1-methyl-1H-pyrazol-5-yl)propan-2-yl)-1H-pyrazol-4-yl)-5-(trifluoromethyl) pyrimidine-2,4-diamine], the figure is 0.3 nM; as for `CNc1nc(Nc2cnn(-c3cc(F)cc(F)c3)c2C)ncc1Br` [Example 115, 5-bromo-N2-(1-(3,5-difluorophenyl)-5-methyl-1H-pyrazol-4-yl)-N4-methylpyrimidine-2,4-diamine], 31 nM.

On to `CCNc1nc(Nc2cn(CC(C)(C)O)nc2C)ncc1C(F)(F)F` [Example 297, 1-[4-(4-Ethylamino-5-trifluoromethyl-pyrimidin-2-ylamino)-3-methyl-pyrazol-1-yl]-2-methyl-propan-2-ol], for which the Ki is 2.1 nM.

As for `CCNc1nc(Nc2cnn([C@H]3CCCN(C4COC4)C3)c2C)ncc1C(F)(F)F` [Example 307, N4-Ethyl-N2-[5-methyl-1-((S)-1-oxetan-3-yl-piperidin-3-yl)-1H-pyrazol-4-yl]-5-trifluoromethyl-pyrimidine-2,4-diamine], the Ki stood at 0.3 nM. Still for that read-out and setting: as for `CNc1nc(Nc2cn(-c3ccc(Cl)cc3)nc2C)ncc1C(F)(F)F` [Example 129, N2-(1-(4-chlorophenyl)-3-methyl-1H-pyrazol-4-yl)-N4-methyl-5-(trifluoromethyl) pyrimidine-2,4-diamine], the figure is 28 nM. The same measure, in the same setting: as for `CCNc1nc(Nc2ccnn2C)ncc1C(F)(F)F` [Example 176, N4-ethyl-N2-(1-methyl-1H-pyrazol-5-yl)-5-(trifluoromethyl) pyrimidine-2,4-diamine], the figure is 11 nM. On to `CCNc1nc(Nc2cn(C3CCC(=O)NC3)nc2C)ncc1C(F)(F)F` (centres unmarked) [Example 262, 5-[4-(4-Ethylamino-5-trifluoromethyl-pyrimidin-2-ylamino)-3-methyl-pyrazol-1-yl]-piperidin-2-one], for which the Ki is 1.3 nM. Still for that read-out and setting: the value for `CNc1nc(Nc2cn(C3CN(C(C)C)C3)nc2C)ncc1C(F)(F)F` [Example 214, N2-(1-(1-isopropylazetidin-3-yl)-3-methyl-1H-pyrazol-4-yl)-N4-methyl-5-(trifluoromethyl) pyrimidine-2,4-diamine] was 64 nM.

With `CNc1nc(Nc2cnn(CC(C)(C)C#N)c2Cl)ncc1C(F)(F)F` [Example 313, 3-[5-Chloro-4-(4-methylamino-5-trifluoromethyl-pyrimidin-2-ylamino)-pyrazol-1-yl]-2,2-dimethyl-propionitrile], the Ki came out at 1.7 nM. Regarding `CNc1nc(Nc2cn(-c3ccccc3)nc2C)ncc1Br` [Example 109, 5-bromo-N4-methyl-N2-(3-methyl-1-phenyl-1H-pyrazol-4-yl)pyrimidine-2,4-diamine], the Ki worked out at 8.4 nM. The same measure, in the same setting: the value for `CNc1nc(Nc2[nH]ncc2C)ncc1C(F)(F)F` [Example 206, N4-methyl-N2-(4-methyl-1H-pyrazol-5-yl)-5-(trifluoromethyl) pyrimidine-2,4-diamine] was 232 nM. Consider `CNc1nc(Nc2cnn(CC(O)C(C)C)c2C)ncc1C(F)(F)F` (centres unmarked) [Example 320, 3-Methyl-1-[5-methyl-4-(4-methylamino-5-trifluoromethyl-pyrimidin-2-ylamino)-pyrazol-1-yl]-butan-2-ol], for which the Ki is 3 nM. The same measure, in the same setting: as for `CNc1nc(Nc2cnn(C3CCN(CC(F)(F)F)CC3)c2C)ncc1C(F)(F)F` [Example 91, N4-methyl-N2-(5-methyl-1-(1-(2,2,2-trifluoroethyl)piperidin-4-yl)-1H-pyrazol-4-yl)-5-(trifluoromethyl) pyrimidine-2,4-diamine], the figure is 4.1 nM; as for `CNc1nc(Nc2cnn(-c3ccc(S(=O)(=O)C4CC4)cc3)c2C)ncc1C(F)(F)F` [Example 167, N2-(1-(4-(cyclopropyl-sulfonyl)phenyl)-5-methyl-1H-pyrazol-4-yl)-N4-methyl-5-(trifluoromethyl) pyrimidine-2,4-diamine], 18.8 nM; as for `CNc1nc(Nc2cnn([C@H](C)COC)c2C)ncc1C(F)(F)F` [Example 205, (R)-N2-(1-(1-methoxypropan-2-yl)-5-methyl-1H-pyrazol-4-yl)-N4-methyl-5-(trifluoromethyl) pyrimidine-2,4-diamine], 19 nM. Same read-out and setting: as for `CNc1nc(Nc2cnn(CC(F)(F)F)c2C)ncc1Br` [Example 96, 5-bromo-N4-methyl-N2-(5-methyl-1-(2,2,2-trifluoroethyl)-1H-pyrazol-4-yl)pyrimidine-2,4-diamine], the figure is 1.1 nM.

For orientation: Ki means the equilibrium dissociation constant of an inhibitor or competing ligand from its target.
